What all share (type): in vivo, human
The test system of experiment [1] is Patients with BPH. The experiment can be described thus: Example 3: acute urinary retention after vehicle or SEQ ID NO. 66 followed by oral BPH medications. The following applies: SEQ ID NO: 66 2.5 mg intraprostatic followed by oral medications; followed 1 to 6 years; p < .02. As for the experimental part: In this example, patients with BPH were given an intraprostatic injection of PBS pH 7.2 vehicle alone or an injection of SEQ ID NO. 66 (Ile-Asp-Gln-Gln-Val-Leu-Ser-Arg-Ile-Lys-Leu-Glu-Ile-Lys-Arg-Cys-Leu), 2.5 mg in PBS, under double-blind conditions by a urologist in an office setting under ultrasound guidance. Patients were followed for 1 to 6 years with regular physical examinations, laboratory tests, and evaluations of symptoms, and treatments. […] 66 and who subsequently received conventional oral medications used to treat BPH such as the classes of approved medications listed above.

The subject of experiment [2] is Patients with BPH. As to the kind of experiment: Example One: incidence of acute urinary retention after intraprostatic injection, double-blind, BPH patients. Conditions: patients with BPH who received intraprostatic SEQ ID NO: 66 2.5 mg at least once (initial or subsequent treatment); after 2 years; followed 1 to 6 years; p < .05 vs control. An excerpt: Patients with BPH were given an intraprostatic injection of either a) SEQ ID NO. 66 (Ile-Asp-Gln-Gln-Val-Leu-Ser-Arg-Ile-Lys-Leu-Glu-Ile-Lys-Arg-Cys-Leu) in phosphate buffered saline pH 7.2 (“PBS”) or b) PBS alone, under double-blind conditions by a urologist in an office setting under ultrasound guidance. Patients were followed for 1 to 6 years with regular physical examinations, laboratory tests, and evaluations of symptoms. Both groups of subjects were subsequently given either 1) no further treatment; 2) conventional oral medications such as alpha blockers or 5-alpha reductase inhibitors; 3) an intraprostatic injection of SEQ ID NO. 66 2.5 mg or 4) more than one of the preceding. The overall incidence of acute urinary retention in all patients who received intraprostatic SEQ ID NO. […] 66 under similar conditions.

For experiment [3], the system named is Patients with BPH. As to the kind of experiment: Example 5: acute urinary retention, follow-up up to 6 years, SEQ ID NO. 66 followed by oral medications or second injection vs vehicle. As for the experimental part: Patients with BPH were administered an intraprostatic injection under double-blind conditions by a urologist in an office setting under ultrasound guidance of either a) SEQ ID NO. 66 (Ile-Asp-Gln-Gln-Val-Leu-Ser-Arg-Ile-Lys-Leu-Glu-Ile-Lys-Arg-Cys-Leu), in phosphate buffered saline pH 7.2 (“PBS”), followed by conventional oral BPH medications used to treat BPH including alpha blockers such as tamsulosin, terazosin, doxazosin, or 5-alpha reductase inhibitors such as finasteride, dutasteride, or phosphodiesterase type 5 inhibitors (PDE5 inhibitors) such as tadalafil. Patients were followed for up to 6 years with regular physical examinations, laboratory tests, and evaluations of symptoms; b) SEQ ID NO. 66 in phosphate buffered saline pH 7.2 followed by a second injection of SEQ ID NO. 66 2.5 mg one month to 2 years later; or c) PBS vehicle alone. […] 66 followed by conventional medication or by another injection of SEQ ID NO.

The subject of experiment [4] is Patients with BPH. As to the kind of experiment: Example Two: acute urinary retention after vehicle injection followed by oral medications or SEQ ID NO. 66. Conditions: PBS vehicle injection followed by intraprostatic injection of SEQ ID NO: 66; followed 1 to 6 years. An excerpt:
Patients with BPH were given an intraprostatic injection of PBS pH 7.2 vehicle alone, under double-blind conditions by a urologist in an office setting under ultrasound guidance. Patients were followed for 1 to 6 years with regular physical examinations, laboratory tests, and evaluations of symptoms, and treatments. […] 66 (Ile-Asp-Gln-Gln-Val-Leu-Ser-Arg-Ile-Lys-Leu-Glu-Ile-Lys-Arg-Cys-Leu).

For experiment [5], the system named is Patients with BPH. As to the kind of experiment: Example 4: acute urinary retention within 24 months, SEQ ID NO. 66 followed by oral medications or second injection vs vehicle. How it is done: Patients with BPH were given an intraprostatic injection under double-blind conditions by a urologist in an office setting under ultrasound guidance of either a) SEQ ID NO. 66 (Ile-Asp-Gln-Gln-Val-Leu-Ser-Arg-Ile-Lys-Leu-Glu-Ile-Lys-Arg-Cys-Leu), in phosphate buffered saline pH 7.2 (“PBS”); or b) SEQ ID NO. 66 in phosphate buffered saline pH 7.2 followed by a second injection of SEQ ID NO. 66 2.5 mg one month to 2 years later; or c) PBS vehicle alone followed by conventional oral BPH medications used to treat BPH including alpha blockers such as tamsulosin, terazosin, doxazosin, or 5-alpha reductase inhibitors such as finasteride, dutasteride, or phosphodiesterase type 5 inhibitors (PDE5 inhibitors) such as tadalafil. Patients were followed for 2 years with regular physical examinations, laboratory tests, and evaluations of symptoms. […] 66 followed by conventional medication or by another injection of SEQ ID NO. 66 there were >75% fewer instances of acute urinary retention compared to subjects who were administered only a control injection of vehicle alone.

Marks after values point to notes of the source that are not given here. No end group written: not given here.

Results on one sequence are retold here after patent US10172910B2, “Method of preventing or reducing the incidence of acute urinary retention” (Nymox Corporation, priority 2016, dated 2019).

Turning to IDQQVLSRIKLEIKRCL [SEQ ID NO: 66], the “Incidence of acute urinary retention” value in experiment [1] is reported as 0%*; in experiment [2] it was 1.4%*; in experiment [3] (SEQ ID NO: 66 intraprostatic followed by oral medications or another injection of SEQ ID NO: 66, followed up to 6 years, p < .04) it was 2%*; in experiment [4], 2.1%. Further, the “fewer instances of acute urinary retention compared to vehicle alone” value in experiment [3] (SEQ ID NO. 66 followed by conventional medication or another injection of SEQ ID NO. 66, up to 6 years) is reported as over 75%; in experiment [5] (SEQ ID NO. 66 followed by conventional medication or another injection of SEQ ID NO. 66, 2 years), over 75%. Further, the “Incidence of acute urinary retention (<24 months)” value in experiment [5] (SEQ ID NO: 66 intraprostatic followed by oral medications or another injection of SEQ ID NO: 66, followed 2 years, p < .03) is given as 0.76%*.
